Like-named read-outs stand apart in the source and are kept apart here.
Key:
human H3 receptor = target: T1, human H3 receptor (Homo sapiens, UniProt Q9Y5N1); assay: Human H3 radioligand binding ([3H]-N-alpha-methylhistamine, SPA)
T1 construct: expressed in transfected cells
Procedure, shortened: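 Compounds (0.01 nM-30 μM) competed with approximately 1 nM [3H]-N-alpha-methylhistamine for human H3 receptor in membranes of stably transfected CHO cells, 10 μg protein per well, in Tris-HCl pH 7.4/MgCl2/BSA buffer for 4 h at room temperature. Bound radioligand measured by scintillation proximity; 10 μM clobenpropit gave non-specific binding.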

[1] = target: T2, rat histamine H3 receptor (Rattus norvegicus, UniProt Q9QYN8); assay: Rat H3 radioligand binding ([3H]-N-alpha-methylhistamine, SPA)
T2 construct: encoding the entire 445-amino-acid rat histamine H3 receptor; expressed in transfected cells; membrane preparation
T2 sequence (Q9QYN8 whole entry): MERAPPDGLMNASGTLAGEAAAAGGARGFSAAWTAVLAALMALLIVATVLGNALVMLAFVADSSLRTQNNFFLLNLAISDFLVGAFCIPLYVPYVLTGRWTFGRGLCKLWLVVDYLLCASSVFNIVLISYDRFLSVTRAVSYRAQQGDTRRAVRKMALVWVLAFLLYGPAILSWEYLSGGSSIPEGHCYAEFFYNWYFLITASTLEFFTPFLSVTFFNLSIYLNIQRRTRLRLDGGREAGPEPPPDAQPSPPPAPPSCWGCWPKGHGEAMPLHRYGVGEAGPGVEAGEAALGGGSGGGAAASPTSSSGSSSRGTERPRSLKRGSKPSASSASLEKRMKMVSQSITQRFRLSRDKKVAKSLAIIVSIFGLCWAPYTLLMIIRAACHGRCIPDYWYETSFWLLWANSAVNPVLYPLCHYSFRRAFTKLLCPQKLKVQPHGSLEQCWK
Procedure, shortened: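 SPA-bead binding assay using [3H]-N-alpha-methylhistamine (approximately 1 nM final) with test compounds from 0.01 nM to 30 μM. Rat H3 receptor membranes came from stably transfected CHO-A3 cells; incubation ran 4 h at room temperature, in the dark, in Tris pH 7.4 buffer with MgCl2 and BSA. Clobenpropit (10 μM) gave non-specific binding.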

[2] = Human H3 binding, Table B, Examples 136-362, read-out: hum H3 binding Ki
[3] = Rat H3 binding, Table B, Examples 136-362, read-out: rat H3 binding Ki
[4] = human H3 binding, Table D, read-out: Human H3 Ki
[5] = rat H3 binding, Table D, read-out: Rat H3 Ki
[6] = Table A, human H3 binding, read-out: Human Ki
[7] = Table A, rat H3 binding, read-out: Rat Ki
[8] = Table C, human H3 binding, read-out: Human H3 Ki
[9] = Table C, rat H3 binding, read-out: Rat H3 Ki

T1 sequence (Q9Y5N1 whole entry): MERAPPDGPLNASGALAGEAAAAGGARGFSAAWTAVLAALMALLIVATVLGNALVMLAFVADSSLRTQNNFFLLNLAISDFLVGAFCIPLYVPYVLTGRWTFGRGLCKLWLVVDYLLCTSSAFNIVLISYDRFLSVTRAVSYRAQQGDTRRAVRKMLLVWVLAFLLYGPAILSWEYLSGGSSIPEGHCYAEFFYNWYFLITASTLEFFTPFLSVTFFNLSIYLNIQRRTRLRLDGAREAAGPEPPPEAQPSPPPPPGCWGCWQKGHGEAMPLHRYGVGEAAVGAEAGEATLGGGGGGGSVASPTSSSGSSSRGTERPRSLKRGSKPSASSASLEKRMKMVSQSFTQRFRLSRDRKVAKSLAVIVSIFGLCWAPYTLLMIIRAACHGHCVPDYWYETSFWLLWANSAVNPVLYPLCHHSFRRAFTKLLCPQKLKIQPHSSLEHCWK

SMILES	Ki (human H3 receptor; [2])	Ki [1, 3]	melting point	other results
Cc1cc(-c2ccc3c(c2)COC2(CCN(C4CCC4)CC2)O3)ccc1C(=O)NCCO [Example 231]	< 0.2 µM	< 0.2 µM	168.5 to 169.9 °C	
O=c1ccc(-c2ccc3c(c2)COC2(CCN(C4CCOC4)CC2)O3)c[nH]1 (stereo not drawn) [Example 729]			222 to 226 °C	Ki (human H3 receptor; [4]): 0.2 to 1 µM; Ki [1, 5]: 0.2 to 1 µM
OC1CCC(c2ccc3c(c2)COC2(CCN(C4CCC4)CC2)O3)CC1 (stereo not drawn) [Example 498]			150 to 153 °C	Ki (human H3 receptor; read-out: Human H3 Ki): < 0.2 µM; Ki ([1]; read-out: Rat H3 kI): < 0.2 µM
Cc1ccccc1-c1ccc2c(c1)COC1(CCN(C3CCC3)CC1)O2 [Example 138]	< 0.2 µM	< 0.2 µM	241 to 243 °C	
CO[C@H]1CCN(C(=O)c2ccc(-c3ccc4c(c3)CCC3(CCN(C5CCC5)CC3)O4)cn2)C1 [Example 252]	< 0.2 µM	< 0.2 µM	249 to 251 °C	
N#Cc1cccc(Nc2ccc3c(c2)COC2(CCN(C4CCC4)CC2)O3)c1 [Example 123]			55 to 60 °C	Ki (human H3 receptor; [6]): < 0.2 µM; Ki [1, 7]: < 0.2 µM
CNC(=O)c1ccc(N2CCN(c3ccc4c(c3)CCC3(CCN(C5CCC5)CC3)O4)CC2)nc1 [Example 409]			297 to 299 °C	Ki (human H3 receptor; [8]): < 0.2 µM; Ki [1, 9]: < 0.2 µM
O=C(C1CCN(c2ccc3c(c2)CCC2(CCN(C4CCC4)CC2)O3)CC1)N1CCOCC1 [Example 434]			165 to 167 °C	Ki (human H3 receptor; [8]): < 0.2 µM; Ki [1, 9]: < 0.2 µM
COc1cc(C(N)=O)ccc1-c1ccc2c(c1)COC1(CCN(C3CCC3)CC1)O2 [Example 712]			122 to 124 °C	Ki (human H3 receptor; [4]): < 0.2 µM; Ki [1, 5]: < 0.2 µM
COc1cc(Oc2ccc3c(c2)CCC2(CCN(C4CCC4)CC2)O3)ccn1 [Example 486]			125 to 127 °C	Ki (human H3 receptor; read-out: Human H3 Ki): < 0.2 µM; Ki ([1]; read-out: Rat H3 kI): < 0.2 µM
O=C(Nc1ccc2c(c1)CCC1(CCN(C3CCC3)CC1)O2)c1ccncc1 [Example 188]	< 0.2 µM	< 0.2 µM	65 to 67 °C	
CNC(=O)c1ccc(-c2cc3c(cc2Cl)OC2(CCN(C4CCC4)CC2)OC3)cc1 [Example 266]	< 0.2 µM	< 0.2 µM	95 to 97 °C	
CC(C)(C)OC(=O)N1CC[C@@H](Oc2ccc3c(c2)CCC2(CCN(C4CCC4)CC2)O3)C1 [Example 442]			280 to 283 °C	Ki (human H3 receptor; [8]): < 0.2 µM; Ki [1, 9]: < 0.2 µM
OC1(c2ccc3c(c2)COC2(CCN(C4CCC4)CC2)O3)CCOC1 (stereo not drawn) [Example 506]			50 °C	Ki (human H3 receptor; read-out: Human H3 Ki): < 0.2 µM; Ki ([1]; read-out: Rat H3 kI): < 0.2 µM
COc1cc(-c2ccc3c(c2)COC2(CCN(C4CCC4)CC2)O3)c(F)cn1 [Example 754]			135 to 136 °C	Ki (human H3 receptor; [4]): < 0.2 µM; Ki [1, 5]: < 0.2 µM

More lines, main results first:

Ki (human H3 receptor; [2])	Ki [1, 3]	melting point	SMILES	other results
		119 to 121 °C	Cc1cc(=O)n(C(F)F)cc1-c1ccc2c(c1)COC1(CCN(C3CCC3)CC1)O2 [Example 764]	Ki (human H3 receptor; [4]): < 0.2 µM; Ki [1, 5]: < 0.2 µM
< 0.2 µM	< 0.2 µM	206.5 to 207.5 °C	CC(C)NC(=O)N1CCN(c2ccc3c(c2)COC2(CCN(C4CCC4)CC2)O3)CC1 [Example 279]	
< 0.2 µM	< 0.2 µM	209 to 210 °C	Cc1cnccc1C(=O)Nc1ccc2c(c1)COC1(CCN(C3CCC3)CC1)O2 [Example 353]	
< 0.2 µM	< 0.2 µM	66.8 to 67.5 °C	COC1CCN(C(=O)c2ccc(-c3ccc4c(c3)CCC3(CCN(C5CCC5)CC3)O4)cc2)CC1 [Example 230]	
		108 to 110 °C	O=C(NC1CCOCC1)c1ccc(-c2ccc3c(c2)COC2(CCN(C4CCC4)CC2)O3)cn1 [Example 639]	Ki (human H3 receptor; [4]): < 0.2 µM; Ki [1, 5]: < 0.2 µM
< 0.2 µM	< 0.2 µM	193 to 195.2 °C	CN(C)C(=O)NC1CCN(c2ccc3c(c2)COC2(CCN(C4CCC4)CC2)O3)CC1 [Example 329]	
		178 to 180 °C	COC(c1ccc2c(c1)COC1(CCN(C3CCC3)CC1)O2)C1CCS(=O)(=O)CC1 (stereo not drawn) [Example 545]	Ki (human H3 receptor; read-out: Human H3 Ki): < 0.2 µM; Ki ([1]; read-out: Rat H3 kI): < 0.2 µM
		171 to 172.5 °C	O=C(c1ccc(-c2ccc3c(c2)COC2(CCN(C4CCC4)CC2)O3)cc1F)N1CCCC1 [Example 41]	Ki (human H3 receptor; [6]): < 0.2 µM; Ki [1, 7]: < 0.2 µM
		153 to 155 °C	c1cc2c(cc1C1CCSCC1)COC1(CCN(C3CCC3)CC1)O2 [Example 480]	Ki (human H3 receptor; read-out: Human H3 Ki): < 0.2 µM; Ki ([1]; read-out: Rat H3 kI): < 0.2 µM
		127.8 to 128.6 °C	c1ccc(-c2ccc3c(c2)COC2(CCN(C4CCC4)CC2)O3)cc1 [Example 39]	Ki (human H3 receptor; [6]): < 0.2 µM; Ki [1, 7]: < 0.2 µM
